Reference: patent US8524744B2, “Arylamine ketones, their preparation methods, the pharmaceutical composition containing them and their use” (Institute of Mataria Medica, Chinese Academy of Medical …, priority 2004, dated 2013)

System: polymorphonuclear leucocytes from rat pleural cavity
Assay: release of β-glucuronidase by polymorphonuclear leucocytes from rat pleural cavity in vitro (PAF as irritant)
Assay type: cell-based
Details: Dose 1 × 10^−4 mol · L^−1; Irritant 2 × 10^−7 mol · L^−1
Experimental: 1% carrageenan was injected into the right pleural cavity of Wistar rat to induce polymorphonuclear leucocytes. The cells was suspended in Dulbecoo's buffer at the concentration of 2.5×10^6 cells·ml^1. The fluid containing the compound or solvent and 250 μl of cells suspension were added in test tube and incubated in 37° C. waterbath for 15 min. Then 2.5 μl of cytochalasin B (1×10^−3 mol·L^−1) was added and the reaction was continued for 5 min. Then 2.5 μl of PAF (1×10^−4 mol·L^−1) was added and for another 5 min. The test tubes were put into ice bath to stop the reaction. The supernatant was isolated and used as the β-glucuronidase release fluid. 25 μl of the enzyme fluid, 25 μl of phenolphthalein-glucuronic acid (2.5 mmol·L^−1) and 100 μl of acetic acid buffer (0.1 mol·L^−1) were added into each well of 96-well plate which was placed into incubater and kept at 37° C.3 for 18 hr. 150 μl of NaOH (0.3 mol·L^−1) was added in each well to cease the reaction and the optical density was read at 550 nm.

Compound	Inhibition (%) of β-glucuronidase release [%]
Cl.O=C(C=Cc1ccc2c(c1)OCO2)CCN1CCN(Cc2ccccc2)CC1 [Compound 51, 5-[(N4-Benzyl)piperazyl]-1-(3,4-methylenedioxyphenyl)-1-penten-3-one hydrochloride]	55.1
CCOC(=O)N1CCN(CCC(=O)C=Cc2ccc3c(c2)OCO3)CC1.Cl [Compound 32, 5-[(N4-Ethoxycarbonyl)piperazyl]-1-(3,4-methylenedioxyphenyl)-1-penten-3-one hydrochloride]	46.1
CCOC(=O)N1CCN(CCC(=O)C=Cc2cc(OC)c(OC)c(OC)c2)CC1.Cl [Compound 28, 5-[(N4-Ethoxycarbonyl)piperazyl]-1-(3,4,5-trimethoxy)phenyl-1-penten-3-one hydrochloride]	21.8
CN1CCN(CCC(=O)C=Cc2ccc3c(c2)OCO3)CC1.Cl [Compound 52, 5-[(N4-Methyl)piperazyl]-1-(3,4-methylenedioxyphenyl)-1-penten-3-one hydrochloride]	31.2

Same assay, conditions: Dose 1 × 10^−5 mol · L^−1; Irritant 1 × 10^−6 mol · L^−1

Compound	Inhibition (%) of β-glucuronidase release [%]
5-[(4-Ethoxycarbonyl)piperidyl]-1-(3,4-dimethoxyphenyl)-1-penten-3-one hydrochloride [Compound 4]	28.05
5-[(N4-Benzyl)piperazyl]-1-(3,4-dimethoxyphenyl)-1-penten-3-one hydrochloride [Compound 48]	25.87
CCOC(=O)C1CCN(CCC(=O)C=Cc2cc(OC)c(OC)c(OC)c2)CC1.Cl [Compound 6, 5-[(4-Ethoxycarbonyl)piperidyl]-1-(3,4,5-trimethoxyphenyl)-1-penten-3-one hydrochloride]	39.53
COc1ccccc1N1CCN(CCC(=O)C=Cc2ccc(Cl)cc2)CC1.Cl [Compound 58]	21.31
CC1CN(CCC(=O)C=Cc2ccc(Br)cc2)CC(C)O1.Cl (centres unmarked) [Compound 39b, 5-(2,6-Dimethylmorpholinyl)-1-(4-bromophenyl)-1-penten-3-one hydrochloride]	40.48
CCOC(=O)C1CCN(CCC(=O)C=Cc2ccc(OCC)c(OC)c2)CC1.Cl [Compound 5, 5-[(4-Ethoxycarbonyl)piperidyl]-1-(3-methoxy-4-ethoxyphenyl)-1-penten-3-one hydrochloride]	45.34
Cl.O=C(C=Cc1ccc(Cl)cc1Cl)CCN1CCC(Cc2ccccc2)CC1 [Compound 23, 5-[(4-Benzyl)piperidyl]-1-(2,4-dichlorophenyl)-1-penten-3-one hydrochloride]	32.27
5-[N4-(3,4-Methylenedioxy(benzyl)piperazyl)]-1-(3,4,5-trimethoxy-phenyl)-1-penten-3-one hydrochloride [Compound 54]	65.88
CCOc1cc(C=CC(=O)CCN2CCN(Cc3ccc4c(c3)OCO4)CC2)ccc1OC.Cl [Compound 55, 5-[N4-(3,4-Methylenedioxy(benzyl)piperazyl)]-1-(3-ethoxy-4-methoxy-phenyl)-1-penten-3-one hydrochloride]	27.24
COc1ccc(C=CC(=O)CCN2CCN(Cc3ccccc3)CC2)cc1.Cl [Compound 49, 5-[(N4-Benzyl)piperazyl]-1-(4-methoxyphenyl)-1-penten-3-one hydrochloride]	43.19
Cl.O=C(C=Cc1ccc(F)cc1)CCN1CCC(Cc2ccccc2)CC1 [Compound 17, 5-[(4-Benzyl)piperidyl]-1-(4-fluorophenyl)-1-penten-3-one hydrochloride]	37.64
5-[(N4-Ethoxycarbonyl)piperazyl]-1-(4-trifluoromethylphenyl)-1-penten-3-one hydrochloride [Compound 29]	22.22
CCOC(=O)N1CCN(CCC(=O)C=Cc2ccc(Br)cc2)CC1.Cl [Compound 30, 5-[(N4-Ethoxycarbonyl)piperazyl]-1-(4-bromophenyl)-1-penten-3-one hydrochloride]	23.54
CCOC(=O)C1CCN(CCC(=O)C=Cc2ccc(Cl)cc2Cl)CC1.Cl [Compound 10, 5-[(4-Ethoxycarbonyl)piperidyl]-1-(2,4-dichlorophenyl)-1-penten-3-one hydrochloride]	51.07
CC(CN1CCN(Cc2ccc3c(c2)OCO3)CC1)C(=O)C=Cc1ccc(Cl)cc1.Cl (centres unmarked) [Compound 53, 5-[N4-(3,4-Methylenedioxy(benzyl)piperazyl)]-1-(4-chlorophenyl)-1-penten-4-methyl-3-one hydrochloride]	37.82
CCCCOc1ccc(C=CC(=O)CCN2CCC(Cc3ccccc3)CC2)cc1.Cl [Compound 22, 5-[(4-Benzyl)piperidyl]-1-(4-butoxyphenyl)-1-penten-3-one hydrochloride]	69.00
CCOC(=O)N1CCN(CCC(=O)C=Cc2ccc(OC)cc2)CC1.Cl [Compound 34d, 5-[(N4-Ethoxycarbonyl)piperazyl]-1-(4-methoxyphenyl)-1-penten-3-one hydrochloride]	62.64
COc1ccc(C=CC(=O)CCN2CC(C)OC(C)C2)cc1.Cl (centres unmarked) [Compound 39c, 5-(2,6-Dimethylmorpholinyl)-1-(4-methoxyphenyl)-1-penten-3-one hydrochloride]	28.66
CCOC(=O)C1CCCN(CCC(=O)C=Cc2ccc(Cl)cc2)C1.Cl (centres unmarked) [Compound 13, 5-[(3-Ethoxycarbonyl)piperidyl]-1-(4-chloro)phenyl-1-penten-3-one hydrochloride]	20.56
CCCOc1ccc(C=CC(=O)CCN2CCC(Cc3ccccc3)CC2)cc1.Cl [Compound 22b, 5-[(4-Benzyl)piperidyl]-1-(4-propoxyphenyl)-1-penten-3-one hydrochloride]	41.79
CCOC(=O)C1CCCN(CCC(=O)C=Cc2ccc(OC)c(O)c2)C1.Cl (centres unmarked) [Compound 14, 5-[(3-Ethoxycarbonyl)piperidyl]-1-(3-hydroxy-4-methoxyphenyl)-1-penten-3-one hydrochloride]	36.65

Same assay, conditions: Dose 1 × 10^−5 mol · L^−1; Irritant 1 × 10^−7 mol · L^−1

Compound	Inhibition (%) of β-glucuronidase release [%]
CCOC(=O)C1CCN(CCC(=O)C=Cc2ccc(O)c(OC)c2)CC1.Cl [Compound 8, 5-[(4-Ethoxycarbonyl)piperidyl]-1-(3-methoxy-4-hydroxyphenyl)-1-penten-3-one hydrochloride]	158.42
CCOC(=O)C1CCCN(CCC(=O)C=Cc2ccc(OC)c(OCC)c2)C1.Cl (centres unmarked) [Compound 12, 5-[(3-Ethoxycarbonyl)piperidyl]-1-(3-ethoxy-4-methoxyphenyl)-1-penten-3-one hydrochloride]	181.48
CCOC(=O)N1CCN(CCC(=O)C=Cc2ccc(O)cc2)CC1.Cl [Compound 24, 5-[(N4-Ethoxycarbonyl)piperazyl]-1-(4-hydroxyphenyl)-1-penten-3-one hydrochloride]	120.85
CCOC(=O)C1CCCN(CCC(=O)C=Cc2ccc3c(c2)OCO3)C1.Cl (centres unmarked) [Compound 15, 5-[(3-Ethoxycarbonyl)piperidyl]-1-(3,4-methylenedioxyphenyl)-1-penten-3-one hydrochloride]	141.17

Same assay, conditions: Dose 1 × 10^−5 mol · L^−1; Irritant 2 × 10^−7 mol · L^−1

Compound	Inhibition (%) of β-glucuronidase release [%]
Cl.O=C(C=Cc1ccc(C(F)(F)F)cc1)CCN1CCN(Cc2ccccc2)CC1 [Compound 44b, 5-[(N4-Benzyl)piperazyl]-1-(4-trifluoromethylphenyl)-1-penten-3-one hydrochloride]	57.93
Cc1ccc(C=CC(=O)CCN2CCC(Cc3ccccc3)CC2)cc1.Cl [Compound 19, 5-[(4-benzyl)piperidyl]-1-(4-methylphenyl)-1-penten-3-one hydrochloride]	79.01
Cl.O=C(C=Cc1ccc(F)cc1)CCN1CCN(Cc2ccccc2)CC1 [Compound 44a, 5-[(N4-Benzyl)piperazyl]-1-(4-fluorophenyl)-1-penten-3-one hydrochloride]	52.46

Same assay, conditions: Dose 1 × 10^−5 mol · L^−1; Irritant 5 × 10^−7 mol · L^−1

Compound	Inhibition (%) of β-glucuronidase release [%]
CCOC(=O)C1CCN(CCC(=O)C=Cc2ccc(O)cc2)CC1.Cl [Compound 1, 5-[(4-Ethoxycarbonyl)piperidyl]-1-(4-hydroxyphenyl)-1-penten-3-one hydrochloride]	97.87

Same assay, conditions: Dose 2 × 10^−6 mol · L^−1; Irritant 1 × 10^−7 mol · L^−1

Compound	Inhibition (%) of β-glucuronidase release [%]
CCOC(=O)C1CCN(CCC(=O)C=Cc2ccc(C#N)cc2)CC1.Cl [Compound 2, 5-[(4-Ethoxycarbonyl)piperidyl]-1-(4-cyanophenyl)-1-penten-3-one hydrochloride]	126.36
CCOC(=O)N1CCN(CCC(=O)C=Cc2ccc(C#N)cc2)CC1.Cl [Compound 34a, 5-[(N4-Ethoxycarbonyl)piperazyl]-1-(4-cyanophenyl)-1-penten-3-one hydrochloride]	121.34
